Experimental data reported in US10047088B2, “1H-1,8-naphthyridin-2-ones as anti proliferative compounds” (NATCO PHARMA LIMITED, priority 2014, dated 2018).
Read-outs that look alike come from different tables or passages of the source. Blank lines part the entries; values can stand above or below the molecule they belong to.

What was measured:
Baf3/T315I = Baf3/T315I (Homo sapiens, UniProt P00519, T315I, cells depend on it); experiment: MTT cell proliferation assay, Baf3/T315I; format: cell-based; conditions: read-out: IC50 values obtained from MTT assay
Procedure: (§1) All the experimental compounds were evaluated for in vitro efficacy employing standard cell lines used for the screening of anti-cancer compounds.
(§2) In Vitro Studies of NRC-21T on BCR-abl Positive Cell Line K562 and Mutant Cell Lines Baf3/T315i, M351T, E255K and WT.
(§3) The stock solution was further diluted with the same cell culture medium and used in concentrations of 0.1 nm to 10 μm. Cell proliferation by MTT assay was done as follows. 1000 to 10,000 cells were seeded per well in 96-well plate and different concentrations of […] ranging from 10 μm to 0.1 nM were added in triplicates. After incubating the cells with NRC-21T for the required time period 24-72 hrs, 15 μl of 5 mg/ml MTT was added and incubated for additional 4 hours at 37° C. and 5% CO2. After 4 hrs, formazan crystals were dissolved in solubilizing buffer overnight at 37° C. Absorbance was measured on Elisa reader at dual wavelength of 570-630-nm. By MTT assay the IC50 values of the NRC21T were computed. […] (FIG. 3)

T315I cell Line = experiment: Survival time in SCID Mice injected with T315I cell line; format: in vivo; conditions: T315I cells i.v., 30 days dosing, NRC21T 200 mg/kg p.o, Ponatinib 10 mg/kg p.o
in vivo = conditions: both, Swiss Albino, mouse
Baf3/M351T = Baf3/M351T (Homo sapiens, UniProt P00519, M351T, cells depend on it); experiment: MTT cell proliferation assay, Baf3/M351T; format: cell-based; conditions: Table 1A, 24-72 hrs incubation, read-out: IC50 values obtained from MTT assay
Procedure: as §1, §2, §3

Baf3/E255K = Baf3/E255K (Homo sapiens, UniProt P00519, E255K, cells depend on it); experiment: MTT cell proliferation assay, Baf3/E255K; format: cell-based; conditions: Table 1A, 24-72 hrs incubation, read-out: IC50 values obtained from MTT assay
Procedure: as §1, §2, §3

Baf3/WT = Baf3/WT (Homo sapiens, UniProt P00519); experiment: MTT cell proliferation assay, Baf3/WT; format: cell-based; conditions: Table 1A, 24-72 hrs incubation, read-out: IC50 values obtained from MTT assay
Procedure: as §1, §2, §3

T315I induced tumour = experiment: Antagonism in T315I induced tumour in Nude Mice; format: in vivo; conditions: for Tumour volume after treatment (Mean ± SEM): daily oral, NRC21T 200 mg/kg, Ponatinib 50 mg/kg
Procedure: The study was carried out with 18 Nude Mice (9 Male+9 Female).
The cell line was inoculated into Nude Mice subcutaneously to the right hind limb flank at a strength of 1×10^6 cells/0.2 ml. Animals were observed daily for the appearance of tumour. The tumour volume was measured using the formula ½ l×w^2 (l=length of tumour & w=width of tumour). When the mean tumour volume was recorded above 400 mm^3, the treatment with the above drugs was started. The above drugs were administered orally daily for 30 days. Weights of Nude Mice were taken daily before dosing and tumour measurements were done on alternative days using digital Vernier caliper. Surviving animals were sacrificed after the dosing was complete for 30 days and the organs (tumour with skin and spleen) were collected.

[1] = tested on: BCR-abl positive cell line K562; experiment: MTT cell proliferation assay, K562; format: cell-based; conditions: Homo sapiens, read-out: IC50 values obtained from MTT assay
Procedure: as §1, §2, §3

[2] = tested on: BaF3/T315i mutant Leukemia cancer cells; experiment: Matrigel invasion assay; format: cell-based; conditions: matrigel transwell, 72 hrs, specified concentration

Compound: Cc1ccc(C(=O)Nc2ccc(CN3CCN(C)CC3)c(C(F)(F)F)c2)cc1C#Cc1cnc2[nH]c(=O)ccc2c1 [NRC21T, 4-Methyl-N-[4-[(4-methylpiperazin-1-yl)methyl]-3-(trifluoromethyl)phenyl]-3-[2-(7-oxo-8H-1,8-naphthyridin-3-yl)ethynyl]benzamide]
GI50 (Baf3/T315I; Table 1A, Baf3/T315I, 24-72 hrs incubation): 0.014 µM
Mean Survival Time (Mean ± SEM) (T315I cell Line): 36 ± 0 days
MTD at 14 days (in vivo): > 2000 mg/kg
GI50 (Baf3/M351T): 0.002 µM
GI50 (Baf3/E255K): 0.016 µM
GI50 (Baf3/WT): 0.011 µM
Tumour volume after treatment (Mean ± SEM) (T315I induced tumour; 3rd Day): 721.18 ± 141.41 mm^3
Tumour volume after treatment (Mean ± SEM) (T315I induced tumour; 5th Day): 183.97 ± 8.66 mm^3
Tumour volume after treatment (Mean ± SEM) (T315I induced tumour; 7th Day): 106.59 ± 11.90 mm^3
Tumour volume after treatment (Mean ± SEM) (T315I induced tumour; 9th Day): 83.21 ± 8.83 mm^3
Tumour volume after treatment (Mean ± SEM) (T315I induced tumour; 11th Day): 48.88 ± 4.36 mm^3
Tumour volume after treatment (Mean ± SEM) (T315I induced tumour; 13th Day): 10.61 ± 2.3 mm^3
Initial tumour volume (Mean ± SEM) (T315I induced tumour; before treatment, NRC21T 200 mg/kg p.o, Ponatinib 50 mg/kg p.o groups): 921.35 ± 176.32 mm^3
IC50 ([1]; Table 1A, 24-72 hrs incubation): 0.007 µM
Percentage of Anti-invasion property [2]: 28%

GI50 (Baf3/T315I; Table 1B, T315I): 0.155 µM
IC50 ([1]; Table 1B): 0.033 µM
Compound: Cc1ccc(C(=O)Nc2ccc(CN3CCN(C)CC3)c(C(F)(F)F)c2)cc1/C=C/c1cnc2[nH]c(=O)ccc2c1 [NRC-20T, 4-Methyl-N-[4-[(4-methylpiperazin-1-yl)methyl]-3-(trifluoromethyl)phenyl]-3-[(E)-2-(7-oxo-8H-1,8-naphthyridin-3-yl)vinyl]benzamide]

GI50 (Baf3/T315I; Table 1B, T315I): 7.69 µM
IC50 ([1]; Table 1B): 0.02 µM
Compound: Cc1ccc(NC(=O)c2cc(C(F)(F)F)cc(C(F)(F)F)c2)cc1C#Cc1cnc2[nH]c(=O)ccc2c1 [NRC-15T, N-[4-Methyl-3-[2-(7-oxo-8H-1,8-naphthyridin-3-yl)ethynyl]phenyl]-3,5-Bis(trifluoromethyl)benzamide]

GI50 (Baf3/T315I; Table 1B, T315I): 1.51 µM
IC50 ([1]; Table 1B): 0.009 µM
Compound: Cc1ccc(NC(=O)c2cccc(C(F)(F)F)c2)cc1C#Cc1cnc2[nH]c(=O)ccc2c1 [NRC-13T, N-[4-Methyl-3-[2-(7-oxo-8H-1,8-naphthyridin-3-yl)ethynyl]phenyl]-3-(trifluoromethyl)benzamide]

GI50 (Baf3/T315I; Table 1B, T315I): 0.334 µM
IC50 ([1]; Table 1B): 0.007 µM
Compound: Cc1ccc(NC(=O)c2ccc(CN3CCN(C)CC3)c(C(F)(F)F)c2)cc1C#Cc1cnc2[nH]c(=O)ccc2c1 [NRC-19T, N-[4-Methyl-3-[2-(7-oxo-8H-1,8-naphthyridin-3-yl)ethynyl]phenyl]-4-[(4-methylpiperazin-1-yl)methyl]-3-(trifluoromethyl)benzamide]

GI50 (Baf3/T315I; Table 1B, T315I): 0.712 µM
IC50 ([1]; Table 1B): 0.021 µM
Compound: Cc1ccc(C(=O)Nc2cc(CN3CCN(C)CC3)cc(C(F)(F)F)c2)cc1C#Cc1cnc2[nH]c(=O)ccc2c1 [NRC-17T, 4-Methyl-N-[3-[(4-methylpiperazin-1-yl)methyl]-5-(trifluoromethyl)phenyl]-3-[2-(7-oxo-8H-1,8-naphthyridin-3-yl)ethynyl]benzamide]

GI50 (Baf3/T315I; Table 1B, T315I): 1.04 µM
IC50 ([1]; Table 1B): 0.008 µM
Compound: Cc1ccc(C(=O)Nc2cccc(C(F)(F)F)c2)cc1C#Cc1cnc2[nH]c(=O)ccc2c1 [NRC-14T, 4-Methyl-3-[2-(7-oxo-8H-1,8-naphthyridin-3-yl)ethynyl]-N-[3-(trifluoromethyl)phenyl]benzamide]

GI50 (Baf3/T315I; Table 1B, T315I): > 10 µM
Compound: Cc1ccc(C(=O)Nc2cc(C(F)(F)F)cc(C(F)(F)F)c2)cc1C#Cc1cnc2[nH]c(=O)ccc2c1 [NRC-16T, N-[3,5-Bis(trifluoromethyl)phenyl]-4-methyl-3-[2-(7-oxo-8H-1,8-naphthyridin-3-yl)ethynyl]benzamide]

GI50 (Baf3/T315I; Table 1B, T315I): 0.228 µM
Compound: Cc1cn(-c2cc(NC(=O)c3ccc(C)c(C#Cc4cnc5[nH]c(=O)ccc5c4)c3)cc(C(F)(F)F)c2)cn1 [NRC-18T, 4-Methyl-N-[3-(4-methylimidazol-1-yl)-5-(trifluoromethyl)phenyl]-3-[2-(7-oxo-8H-1,8-naphthyridin-3-yl)ethynyl]benzamide]

Compound: Cc1ccc(C(=O)Nc2ccc(CN3CCN(C)CC3)c(C(F)(F)F)c2)cc1C#Cc1cnc2cccnn12 [Ponatinib, reference compound]
Mean Survival Time (Mean ± SEM) (T315I cell Line): 36 ± 0 days
Percentage of Anti-invasion property [2]: 12%
